Measurements from US8426202B2, “Cell culture medium” (Cellca GmbH, priority 2005, dated 2013).
Where “and” joins values, the source holds several entries; their conditions need not be identical. Equal values may be shown once. Read-outs that look alike come from different tables or passages of the source.

How the values were obtained:
[1] = test system: CHO cell line that expresses an antibody; conditions: fed-batch; substance 1 g/l; supernatant, ELISA; absolute value of the control set at 100%
Description: A CHO cell line that expresses an antibody was used for the experiments. The product concentration (antibody concentration) in the cell supernatant was determined by ELISA.
From selected samples, the product concentration (antibody concentration) in the supernatant was determined by ELISA (Table 3)

[2] = test system: CHO cell line that expresses an antibody; conditions: fed-batch, basal medium 4 mM glutamine, feed with 3 g/l Ala-Gln and 3 g/l Gly-Gln, substance 0.5-1 g/l
Description: (§1) A CHO cell line that expresses an antibody was used for the experiments.
The experiments were carried out either in batch mode or in fed-batch mode. When the process was carried out in fed-batch mode, the process was first started in batch mode in the above-mentioned basal medium and cells were cultivated in this manner for 1-4 days. After 1-4 days the cells were supplemented with a feed medium, i.e. the process was switched to fed-batch mode. Feed took place at regular intervals. In fed-batch experiments, a protein-free and serum-free feed medium from the company HyQ (R05.2 supplement, Cat. No.: SH30584.04, Lot No.: APF21457G) was used.
From the stock solutions, the substances were put at the desired final concentration in culture tubes. The various culture tubes prepared in this way were finally inoculated with the antibody-producing CHO-clone at a target inoculation cell concentration (1-3×10^5/ml). For this, the corresponding amount of inoculum cells was calculated and the required amount of inoculum cell suspension was centrifuged. […] In this way the desired inoculation cell concentration was adjusted in the cell suspension being investigated. The cell suspension thus prepared was proportioned in the culture tubes, which were provided with the substances according to the invention beforehand. The culture tubes were incubated at 37° C., and 8% CO2 atmosphere, with shaking. The culture tubes were cultivated for 8-11 days in the batch mode or in the fed-batch mode. Samples for offline measurement of the variables were taken from the culture vessels at regular intervals, for example daily or on every third day. The metabolic variables and cell concentrations of the samples were measured. Cell concentration and cell vitality were measured with a CeDex instrument. The metabolic variables (glucose, lactate, glutamine and ammonium) were determined with an analyzer (BioProfile 100).
(§2) The following final concentrations of the substances according to the invention were established in a nutrient medium after inoculation:
The substances according to the invention were tested under fed-batch conditions. […] The feed medium used was from the company HyQ (R05.2 supplement, Cat. No.: SH30584.04, Lot No.: APF21457G). 3 g/l alanyl-glutamine (Ala-Gin) and 3 g/l glycyl-glutamine (Gly-Gln) were added to the feed medium.

[3] = test system: CHO cell line that expresses an antibody; assay: Fed-batch experiment with the substances according to the invention (Example 2, Table 2); format: cell-based, Chinese hamster; set-up: Viabil.: concentration or dose not given beside the values
Description: Feed took place at regular intervals.

[4] = test system: CHO cell line that expresses an antibody; assay: Batch experiment with the substances according to the invention (Example 1); format: cell-based, Chinese hamster; conditions: batch mode, substance 0.5-1 g/l, basal medium glucose 4.7 g/l, glutamine […]
[5] = test system: CHO cell line that expresses an antibody; conditions: fed-batch, glutamine-free basal and feed media, substance 0.5-1 g/l
Description: as §1
This is a serum-free, protein-free nutrient medium. It is a ready-made, sterile-filtered nutrient medium.
After 1-4 days the cells were supplemented with a feed medium, i.e. the process was switched to fed-batch mode. Feed took place at regular intervals. In fed-batch experiments, a protein-free and serum-free feed medium from the company HyQ (R05.2 supplement, Cat. No.: SH30584.04, Lot No.: APF21457G) was used.
All substances (chemicals) used according to the invention were obtained from the company Sigma and stock solutions were prepared from them. From the stock solutions, the substances were put at the desired final concentration in culture tubes. The various culture tubes prepared in this way were finally inoculated with the antibody-producing CHO-clone at a target inoculation cell concentration (1-3×10^5/ml). For this, the corresponding amount of inoculum cells was calculated and the required amount of inoculum cell suspension was centrifuged. […] In this way the desired inoculation cell concentration was adjusted in the cell suspension being investigated. The cell suspension thus prepared was proportioned in the culture tubes, which were provided with the substances according to the invention beforehand. The culture tubes were incubated at 37° C., and 8% CO2 atmosphere, with shaking. The culture tubes were cultivated for 8-11 days in the batch mode or in the fed-batch mode. Samples for offline measurement of the variables were taken from the culture vessels at regular intervals, for example daily or on every third day. The metabolic variables and cell concentrations of the samples were measured. Cell concentration and cell vitality were measured with a CeDex instrument. The metabolic variables (glucose, lactate, glutamine and ammonium) were determined with an analyzer (BioProfile 100).
as §2
The substances according to the invention were tested under fed-batch conditions. […] The feed medium used was from the company HyQ (R05.2 supplement, Cat. No.: SH30584.04, Lot No.: APF21457G). The feed medium was glutamine-free (Table 4).

## CC(O)C(=O)[O-].[Na+] (stereo not shown) [Sodium lactate]
[1]
  Antibody concentration: 124%
[2]; day 0
  Total Cell Density TCD: 1.1 E5/ml
  Viabil.: 96%
  Viable Cell Density (VCD): 1.0 E5/ml
[2]; day 3
  Total Cell Density TCD: 7.9 E5/ml
  Viabil.: 96%
  Viable Cell Density (VCD): 7.6 E5/ml
[2]; day 5
  Total Cell Density TCD: 45.2 E5/ml
  Viabil.: 96%
  Viable Cell Density (VCD): 43.3 E5/ml
[2]; day 7
  Total Cell Density TCD: 41.1 E5/ml
  Viabil.: 83%
  Viable Cell Density (VCD): 34.3 E5/ml
[2]; day 9
  Total Cell Density TCD: 34.7 E5/ml
  Viabil.: 73%
  Viable Cell Density (VCD): 25.2 E5/ml
[3]; day 0, fed-batch
  Total Cell Density TCD: 1.5 E5/ml
  Viabil.: 91%
  Viable Cell Density (VCD): 1.37 E5/ml
[3]; day 2, fed-batch
  Total Cell Density TCD: 4.6 E5/ml and 4 E5/ml
  Viabil.: 98% and 95%
  Viable Cell Density (VCD): 4.5 E5/ml and 3.8 E5/ml
[3]; day 5, fed-batch
  Total Cell Density TCD: 13.1 E5/ml and 14.3 E5/ml
  Viabil.: 98%
  Viable Cell Density (VCD): 12.8 E5/ml and 14 E5/ml
[3]; day 8, fed-batch
  Total Cell Density TCD: 52.4 E5/ml and 54.7 E5/ml
  Viabil.: 96% and 95%
  Viable Cell Density (VCD): 50.2 E5/ml and 52 E5/ml
[4]; day 0
  Gln: 1.53 mM
  Glucose: 4.69 g/L
  Lactate: 1 g/L
  NH4: 1.22 mM
  Specific Glutamin consumption (Gln/VCD): 1.49
  Specific ammonia production (NH4/VCD): 1.18
  Specific glucose consumption (Gluc/VCD): 4.55
  Specific lactate production (Lac/VCD): 0.97
  Total Cell Density TCD: 1.07 E5/ml
  Viabil.: 96%
  Viable Cell Density (VCD): 1.03 E5/ml
[4]; day 3
  Gln: 1.12 mM
  Glucose: 4.44 g/L
  Lactate: 1.15 g/L
  NH4: 1.65 mM
  Specific Glutamin consumption (Gln/VCD): 0.19
  Specific ammonia production (NH4/VCD): 0.28
  Specific glucose consumption (Gluc/VCD): 0.74
  Specific lactate production (Lac/VCD): 0.19
  Total Cell Density TCD: 6 E5/ml
  Viabil.: 100%
  Viable Cell Density (VCD): 6 E5/ml
[4]; day 6
  Gln: 0.31 mM
  Glucose: 2.82 g/L
  Lactate: 1.49 g/L
  NH4: 2.07 mM
  Specific Glutamin consumption (Gln/VCD): 0.01
  Specific ammonia production (NH4/VCD): 0.05
  Specific glucose consumption (Gluc/VCD): 0.07
  Specific lactate production (Lac/VCD): 0.04
  Total Cell Density TCD: 41 E5/ml
  Viabil.: 99%
  Viable Cell Density (VCD): 40.6 E5/ml
[4]; day 8
  Gln: 0.35 mM
  Glucose: 1.79 g/L
  Lactate: 1.47 g/L
  NH4: 2.63 mM
  Specific Glutamin consumption (Gln/VCD): 0.02
  Specific ammonia production (NH4/VCD): 0.12
  Specific glucose consumption (Gluc/VCD): 0.08
  Specific lactate production (Lac/VCD): 0.07
  Total Cell Density TCD: 23.7 E5/ml
  Viabil.: 90%
  Viable Cell Density (VCD): 21.3 E5/ml
[4]; day 11
  Gln: 0.5 mM
  Glucose: 0.55 g/L
  Lactate: 1.04 g/L
  NH4: 3.12 mM
  Specific Glutamin consumption (Gln/VCD): 0.04
  Specific ammonia production (NH4/VCD): 0.27
  Specific glucose consumption (Gluc/VCD): 0.05
  Specific lactate production (Lac/VCD): 0.09
  Total Cell Density TCD: 24.5 E5/ml
  Viabil.: 47%
  Viable Cell Density (VCD): 11.4 E5/ml
[5]; day 0
  Sp. Gluc cons.: 93
  Sp. NH4 prod: 98 % of control
  TCD: 100 % of control
  VCD: 100 % of control
  Viabil.: 94%
[5]; day 3
  Sp. Gluc cons.: 66
  Sp. Lactate prod.: 72 % of control
  Sp. NH4 prod: 63 % of control
  TCD: 140 % of control
  VCD: 148 % of control
  Viabil.: 94%
[5]; day 5
  Sp. Gluc cons.: 74
  Sp. Lactate prod.: 66 % of control
  Sp. NH4 prod: 72 % of control
  TCD: 128 % of control
  VCD: 136 % of control
  Viabil.: 97%
[5]; day 7
  Sp. Gluc cons.: 62
  Sp. Lactate prod.: 57 % of control
  Sp. NH4 prod: 66 % of control
  TCD: 136 % of control
  VCD: 147 % of control
  Viabil.: 95%
[5]; day 9
  Sp. Gluc cons.: 71
  Sp. Lactate prod.: 65 % of control
  Sp. NH4 prod: 73 % of control
  TCD: 131 % of control
  VCD: 133 % of control
  Viabil.: 95%
